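The compound was tested at five concentrations on cells cultured in 96-well plates, with a 48-hour exposure period. GI50 marks 50% less growth.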 Active and inactive are the calls of the source. No stated cut-off is given here; in the data, active = GI50 up to about 1.1 µM and inactive = higher.
Assays:
Test in all cases: NCI anticancer screen, dose series, 48 h
SR = tested on: SR
NCI/ADR-RES = tested on: NCI/ADR-RES
MCF7 = tested on: MCF7
A498 = tested on: A498
OVCAR-4 = tested on: OVCAR-4
MDA-N = tested on: MDA-N
COLO 205 = tested on: COLO 205
Malme-3M = tested on: Malme-3M
UACC-62 = tested on: UACC-62
U-251 = tested on: U-251
EKVX = tested on: EKVX
HCT-15 = tested on: HCT-15
RXF 393 = tested on: RXF 393
OVCAR-5 = tested on: OVCAR-5
A549 = tested on: A549
K562 = tested on: K562
NCI-H460 = tested on: NCI-H460
PC-3 = tested on: PC-3
IGROV-1 = tested on: IGROV-1
NCI-H522 = tested on: NCI-H522

SMILES	GI50 (SR)	GI50 (NCI/ADR-RES)	GI50 (MCF7)	GI50 (A498)	GI50 (OVCAR-4)	GI50 (MDA-N)	GI50 (COLO 205)	GI50 (Malme-3M)	GI50 (UACC-62)	GI50 (U-251)	GI50 (EKVX)	GI50 (HCT-15)	GI50 (RXF 393)	GI50 (OVCAR-5)	GI50 (A549)	GI50 (K562)	GI50 (NCI-H460)	GI50 (PC-3)	GI50 (IGROV-1)	GI50 (NCI-H522)
C/C(=C\C(=O)O)C(=O)N(C)c1ccccc1I	> 100 µM (inactive)	> 100 µM (inactive)	> 100 µM (inactive)	> 100 µM (inactive)	> 100 µM (inactive)	> 100 µM (inactive)	> 100 µM (inactive)	> 100 µM (inactive)	> 100 µM (inactive)	> 100 µM (inactive)	> 100 µM (inactive)	> 100 µM	> 100 µM (inactive)	> 100 µM (inactive)	> 100 µM (inactive)	> 100 µM (inactive)	> 100 µM (inactive)	> 100 µM (inactive)		
CCN(CC)C(=C(C(Cl)=C(Cl)Cl)[N+](=O)[O-])N(CC)CC	33.7 µM (inactive)	54 µM (inactive)	> 100 µM (inactive)	> 100 µM (inactive)	> 100 µM (inactive)	47.1 µM (inactive)	> 100 µM (inactive)	19.6 µM (inactive)	49.4 µM (inactive)	> 100 µM (inactive)	> 100 µM (inactive)	62.2 µM	17.3 µM (inactive)	> 100 µM (inactive)	> 100 µM (inactive)	46.5 µM (inactive)	55 µM (inactive)	> 100 µM (inactive)	47.1 µM (inactive)	
CC1=NN(c2cccc(Cl)c2)C2(SCC(=O)N2c2nc3ccccc3s2)/C1=C\c1ccccc1 (stereo not given)	22.3 µM (inactive)	24.9 µM (inactive)	23.6 µM (inactive)	23.2 µM (inactive)	16.7 µM (inactive)	20.9 µM (inactive)				19.7 µM (inactive)	36.4 µM (inactive)	16 µM	21.6 µM (inactive)	22.4 µM (inactive)		17.6 µM (inactive)	15.3 µM (inactive)	23.6 µM (inactive)	17.9 µM (inactive)	14.6 µM (inactive)
Cc1ccccc1Nc1cn(CCOc2ccccc2)c(=O)n(CCOc2ccccc2)c1=O		> 100 µM (inactive)	90.8 µM (inactive)	> 100 µM (inactive)	58.7 µM (inactive)	> 100 µM (inactive)	96.2 µM (inactive)	3.33 µM (inactive)	> 100 µM (inactive)	> 100 µM (inactive)	> 100 µM (inactive)	> 100 µM	> 100 µM (inactive)	> 100 µM (inactive)	> 100 µM (inactive)	> 100 µM (inactive)	> 100 µM (inactive)	> 100 µM (inactive)	> 100 µM (inactive)	12.5 µM (inactive)
CCOC(=O)Cc1nnc2c(-c3ccccc3)nc3ccccc3n12	> 100 µM (inactive)	90.6 µM (inactive)	85.3 µM (inactive)	52.5 µM (inactive)	> 100 µM (inactive)	> 100 µM (inactive)	> 100 µM (inactive)	> 100 µM (inactive)	44.7 µM (inactive)	22.4 µM (inactive)	27.9 µM (inactive)	56.2 µM	20.6 µM (inactive)	63.5 µM (inactive)	> 100 µM (inactive)	> 100 µM (inactive)	> 100 µM (inactive)	34.5 µM (inactive)	85.7 µM (inactive)	
O=C1c2ccccc2C(=O)c2c(NCC3CO3)cccc21 (stereo not given)		9.91 µM (inactive)	1.31 µM (inactive)	34.4 µM (inactive)	> 86.1 µM (inactive)	8.99 µM (inactive)	> 53.1 µM (inactive)	> 80.5 µM (inactive)	16 µM (inactive)	14 µM (inactive)	17.5 µM (inactive)	7.23 µM	7.66 µM (inactive)	> 71.3 µM (inactive)	57 µM (inactive)	6.62 µM (inactive)	> 64.7 µM (inactive)	16.9 µM (inactive)	17.4 µM (inactive)	23.2 µM (inactive)

From ChEMBL document CHEMBL1201862, “PubChem BioAssay data set” (2004)
